Data taken from ChEMBL document CHEMBL1201862, “PubChem BioAssay data set” (2004).
Active and inactive are the calls of the source.

Experiments:
Streptococcus [1] = assay: Luminescence Microorganism-Based Dose Response Follow up to Identify Compounds Cytotoxic to Streptococcus. [Related pubchem assays: 1677 (Project Summary), 1915, 1914, 1902 (Retest at Dose), 1900 (Counter Screen), 1662 (Primary HTS)]; assay type: functional, organism-based
[2] = system: Streptococcus sp. 'group A'; assay: growth inhibition of control SK(-) GAS strain, dose response, counter-screen for streptokinase expression inhibitor project, luminescence, kanamycin, BacTiterGlo, confirmation (AID 1900); assay type: functional, organism-based
Streptokinase A = biological target: T1, Streptokinase A (Streptococcus pyogenes serotype M1, UniProt P10520); assay: S. pyogenes streptokinase expression inhibitors, potency, dose response, plasminogen activation absorbance, OD405 (AID 1914); assay type: functional, Streptococcus pyogenes M1 GAS;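 further: secreted streptokinase activity via plasminogen activation per viability signal from cell pellet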
T1 sequence (P10520 whole entry): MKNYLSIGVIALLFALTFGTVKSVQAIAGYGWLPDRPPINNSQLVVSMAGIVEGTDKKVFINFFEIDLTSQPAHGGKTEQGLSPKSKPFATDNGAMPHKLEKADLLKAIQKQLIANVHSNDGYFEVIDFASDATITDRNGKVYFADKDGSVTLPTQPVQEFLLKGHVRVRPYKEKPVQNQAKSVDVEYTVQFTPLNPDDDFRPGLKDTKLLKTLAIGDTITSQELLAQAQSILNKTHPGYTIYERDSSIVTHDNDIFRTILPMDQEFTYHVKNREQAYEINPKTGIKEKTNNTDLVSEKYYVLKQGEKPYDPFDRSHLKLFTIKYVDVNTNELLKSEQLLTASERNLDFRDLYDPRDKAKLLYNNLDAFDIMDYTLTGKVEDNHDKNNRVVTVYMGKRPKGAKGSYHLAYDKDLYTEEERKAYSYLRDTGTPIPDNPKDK

Streptococcus [3] = assay: Group A Streptococcus viability loss, dose response, counter-screen for streptokinase expression inhibitor project, luminescence, BacTiterGlo (AID 1915); assay type: functional, organism-based;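 further: potency for reduction of bacterial viability or growth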
Hexokinase HKDC1 = biological target: T2, Hexokinase HKDC1 (Homo sapiens, UniProt Q2TB90); assay: HKDC1 hexokinase inhibitors, dose response, biochemical, W721R variant (AID 504729); assay type: functional
T2 sequence (Q2TB90 whole entry): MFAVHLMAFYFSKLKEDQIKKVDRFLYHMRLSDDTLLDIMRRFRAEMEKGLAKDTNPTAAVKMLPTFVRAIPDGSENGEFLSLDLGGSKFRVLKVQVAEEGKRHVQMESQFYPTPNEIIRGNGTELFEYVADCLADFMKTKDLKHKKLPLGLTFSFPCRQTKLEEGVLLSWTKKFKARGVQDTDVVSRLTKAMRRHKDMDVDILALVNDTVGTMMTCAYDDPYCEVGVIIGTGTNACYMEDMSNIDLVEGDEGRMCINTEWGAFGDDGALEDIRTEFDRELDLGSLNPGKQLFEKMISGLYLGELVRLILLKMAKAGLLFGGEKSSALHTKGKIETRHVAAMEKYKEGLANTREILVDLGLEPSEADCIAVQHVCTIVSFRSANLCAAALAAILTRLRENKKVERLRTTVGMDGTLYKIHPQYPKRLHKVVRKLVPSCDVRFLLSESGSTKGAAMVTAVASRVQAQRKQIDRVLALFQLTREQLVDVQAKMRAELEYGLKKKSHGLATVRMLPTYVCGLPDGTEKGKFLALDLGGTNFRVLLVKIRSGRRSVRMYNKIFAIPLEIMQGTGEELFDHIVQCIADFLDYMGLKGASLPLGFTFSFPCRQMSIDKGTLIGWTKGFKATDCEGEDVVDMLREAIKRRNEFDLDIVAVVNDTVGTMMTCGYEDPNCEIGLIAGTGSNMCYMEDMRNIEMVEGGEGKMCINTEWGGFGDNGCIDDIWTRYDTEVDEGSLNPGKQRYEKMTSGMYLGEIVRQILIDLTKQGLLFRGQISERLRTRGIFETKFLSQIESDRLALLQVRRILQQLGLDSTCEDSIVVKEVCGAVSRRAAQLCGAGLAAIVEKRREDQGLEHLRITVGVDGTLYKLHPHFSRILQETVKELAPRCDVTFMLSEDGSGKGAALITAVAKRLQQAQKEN

Vasopressin V1a receptor = Vasopressin V1a receptor (Homo sapiens, UniProt P37288); assay: Counterscreen for Oxytocin Receptor (OXTR) agonists: Fluorescence-based cell-based high throughput dose response assay to identify agonists of the vasopressin 1 receptor (V1R). [Related pubchem assays: 2435 (Primary screen (OXTR agonists in singlicate)), 434991 (Counterscreen (V1R agonists in triplicate)), 2482 (Summary (OXTR agonists)) …; assay type: functional
Sequence of Vasopressin V1a receptor (P37288 whole entry): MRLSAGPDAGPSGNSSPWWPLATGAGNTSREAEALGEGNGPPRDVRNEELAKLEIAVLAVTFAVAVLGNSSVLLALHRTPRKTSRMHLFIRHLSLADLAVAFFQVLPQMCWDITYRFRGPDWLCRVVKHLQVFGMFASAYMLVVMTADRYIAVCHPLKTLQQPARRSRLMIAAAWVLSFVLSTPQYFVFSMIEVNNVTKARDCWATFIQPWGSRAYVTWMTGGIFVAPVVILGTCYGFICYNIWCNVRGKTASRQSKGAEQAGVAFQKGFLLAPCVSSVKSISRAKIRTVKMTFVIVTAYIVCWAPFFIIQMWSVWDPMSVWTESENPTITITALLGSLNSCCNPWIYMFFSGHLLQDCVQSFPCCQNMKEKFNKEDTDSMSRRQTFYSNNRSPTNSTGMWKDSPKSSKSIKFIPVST

Oxytocin receptor = Oxytocin receptor (Homo sapiens, UniProt P30559); assay: Fluorescence-based cell-based high throughput dose response assay for agonists of the Oxytocin Receptor (OXTR). [Related pubchem assays: 2435 (Primary screen (OXTR agonists in singlicate)), 434991 (Counterscreen (V1R agonists in triplicate)), 2482 (Summary (OXTR agonists)), 434963 (Confirmation screen (OXTR agonists in triplicate))]; assay type: functional
Sequence of Oxytocin receptor (P30559 whole entry): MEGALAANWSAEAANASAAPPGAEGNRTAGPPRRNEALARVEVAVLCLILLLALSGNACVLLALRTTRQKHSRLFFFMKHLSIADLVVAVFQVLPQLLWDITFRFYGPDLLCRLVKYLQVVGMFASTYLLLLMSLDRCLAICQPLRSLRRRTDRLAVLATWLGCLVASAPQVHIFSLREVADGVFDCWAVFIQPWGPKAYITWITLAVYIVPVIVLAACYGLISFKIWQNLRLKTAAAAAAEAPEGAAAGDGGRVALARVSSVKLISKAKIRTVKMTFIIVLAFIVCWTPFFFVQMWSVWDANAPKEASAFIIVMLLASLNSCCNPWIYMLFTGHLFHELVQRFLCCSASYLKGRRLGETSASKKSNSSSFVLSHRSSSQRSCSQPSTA

[4] = biological target: T3, Microphthalmia-associated transcription factor (Homo sapiens, UniProt O75030); assay: TRPM1 promoter luciferase signal decrease, dose response, MITF inhibitor project, cell-based, SK-MEL-5, cherry-picked, set 3 (AID 493073); assay type: functional
T3 sequence (O75030 whole entry): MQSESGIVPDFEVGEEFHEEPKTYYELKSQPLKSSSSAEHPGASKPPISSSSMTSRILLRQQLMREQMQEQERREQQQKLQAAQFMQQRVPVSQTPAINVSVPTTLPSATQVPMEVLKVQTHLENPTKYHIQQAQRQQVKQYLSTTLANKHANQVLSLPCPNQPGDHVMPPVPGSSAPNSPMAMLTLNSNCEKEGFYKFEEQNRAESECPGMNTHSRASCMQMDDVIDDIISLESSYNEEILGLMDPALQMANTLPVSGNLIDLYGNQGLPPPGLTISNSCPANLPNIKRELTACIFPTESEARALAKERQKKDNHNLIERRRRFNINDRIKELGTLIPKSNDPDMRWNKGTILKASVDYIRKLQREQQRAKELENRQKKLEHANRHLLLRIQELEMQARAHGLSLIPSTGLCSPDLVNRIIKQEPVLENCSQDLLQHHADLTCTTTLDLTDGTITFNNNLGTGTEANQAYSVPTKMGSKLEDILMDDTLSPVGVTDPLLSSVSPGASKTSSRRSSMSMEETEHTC

A-375 = assay: MITF: Counter assay: A375 proliferation Measured in Cell-Based System Using Plate Reader - 2084-03_Inhibitor_Dose_DryPowder_Activity. [Related pubchem assays (depositor defined):AID488944]; assay type: functional; conditions: Homo sapiens
[5] = miR-122 activators in hepatoma reporter cells, dose response, cell-based, Huh7 psiCHECK-miR122, Renilla luciferase, cherry-picked (AID 651956); assay type: functional;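 further: huh7 hepatoma cells stably carrying a psiCHECK-2 miR-122 sensor plasmid; renilla luciferase signal reporting endogenous miR-122 activity after 48 h compound exposure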
[6] = HEK293T cytotoxicity, dose response, cytotoxicity control for miR-122 modulator project, cell-based, activator set, cherry-pick (AID 720690); assay type: functional;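 further: HEK293T human cells scored for general mammalian cytotoxicity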
[7] = biological target: T4, Tyrosine-protein phosphatase non-receptor type 7 (Homo sapiens, UniProt P35236); assay: SAR analysis of chemical inhibitors of HePTP using a Fluorescent assay - Set 2. [Related pubchem assays (depositor defined):AID1059, AID1077, AID1661, AID2085, AID521]; assay type: functional
T4 sequence (P35236 whole entry): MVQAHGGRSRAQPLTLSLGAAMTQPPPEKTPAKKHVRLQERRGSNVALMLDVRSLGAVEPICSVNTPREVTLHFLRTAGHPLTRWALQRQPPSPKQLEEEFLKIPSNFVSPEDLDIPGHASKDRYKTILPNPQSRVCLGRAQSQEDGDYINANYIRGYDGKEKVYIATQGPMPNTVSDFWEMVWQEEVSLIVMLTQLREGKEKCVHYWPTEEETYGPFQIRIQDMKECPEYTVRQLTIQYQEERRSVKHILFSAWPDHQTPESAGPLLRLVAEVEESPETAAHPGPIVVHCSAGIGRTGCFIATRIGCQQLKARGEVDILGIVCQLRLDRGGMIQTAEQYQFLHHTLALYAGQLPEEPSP

[8] = biological target: Dual specificity protein phosphatase 3 (Homo sapiens, UniProt P51452); assay: SAR VHR1 Fluorescent Assay for In Vitro dose response studies Set 2. [Related pubchem assays (depositor defined):AID1654, AID1661, AID1878]; assay type: functional
Sequence of Dual specificity protein phosphatase 3 (P51452 whole entry): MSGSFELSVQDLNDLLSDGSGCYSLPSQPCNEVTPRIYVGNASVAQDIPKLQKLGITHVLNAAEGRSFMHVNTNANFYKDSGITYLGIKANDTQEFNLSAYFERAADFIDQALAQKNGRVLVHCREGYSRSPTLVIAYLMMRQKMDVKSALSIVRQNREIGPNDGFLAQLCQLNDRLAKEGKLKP

[9] = inhibitors of firefly luciferase expression or activity, dose response, H4 neuroglioma cells, luminescence (AID 1990); assay type: functional, cell-based
[10] = Luminescence Cell-Based Dose Response HTS to Identify Inhibitors of 5'UTR Stem-Loop Driven Prion Protein mRNA Translation in H4 Neuroglioblastoma Cells. [Related pubchem assays: 1827 (Project Summary), 1813 (Primary HTS)]; assay type: functional
[11] = inhibitors of SNCA 5'UTR-driven reporter translation, confirmation, H4 neuroglioma cells, luminescence (AID 1988); assay type: functional, cell-based
[12] = cytotoxicity in HEK-293T cells, dose response, cytotoxicity control for BCR NF-kB inhibitor project, luminescence, B-cell screen hits (AID 489021); assay type: functional, cell-based;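 further: HEK-293T cells carrying an NF-kB luciferase reporter; cells exposed to compound for about 14 hours before viability readout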
Cytochrome P450 3A4 = Cytochrome P450 3A4 (Homo sapiens, UniProt P08684); conditions: Potency;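 further: confirmatory qHTS run detecting inhibitors and substrates of CYP3A4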
Sequence of Cytochrome P450 3A4 (P08684 whole entry): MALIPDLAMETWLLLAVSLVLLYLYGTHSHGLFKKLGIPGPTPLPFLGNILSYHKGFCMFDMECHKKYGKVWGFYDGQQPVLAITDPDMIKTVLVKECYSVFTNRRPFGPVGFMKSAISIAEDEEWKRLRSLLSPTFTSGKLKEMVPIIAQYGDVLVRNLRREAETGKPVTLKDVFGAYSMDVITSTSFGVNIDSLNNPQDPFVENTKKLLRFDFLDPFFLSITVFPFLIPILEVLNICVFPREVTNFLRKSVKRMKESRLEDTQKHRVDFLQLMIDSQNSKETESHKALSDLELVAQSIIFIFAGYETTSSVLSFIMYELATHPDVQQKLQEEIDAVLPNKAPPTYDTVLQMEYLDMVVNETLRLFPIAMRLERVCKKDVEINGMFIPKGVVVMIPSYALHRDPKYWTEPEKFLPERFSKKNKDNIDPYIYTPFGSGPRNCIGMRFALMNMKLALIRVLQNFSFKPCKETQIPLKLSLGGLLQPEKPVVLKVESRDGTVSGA

Q: With `Cc1ccc(C(=O)C(c2ccccc2)N2Cc3ccccc3C2=N)cc1` (centres undefined) as the molecule, how does the EC50 (Streptococcus [1]) read?
A: 33.5 µM (active)

Q: What does the source list for `CCN(CC)C(=S)SCC(=O)Nc1nc(-c2ccccc2)c(-c2ccccc2)o1`?
A: EC50 [2]: 7.26 µM (active); EC50 (Streptococcus [1]): > 500 µM (not active); EC50 (Streptokinase A): 8.54 µM (active); EC50 (Streptococcus [3]): > 150 µM (not active)

Q: Which IC50 (Hexokinase HKDC1) does the source give for `COc1ccc(NC(=O)CSc2ccc(-c3cccnc3)nn2)c(OC)c1` here?
A: 17.8 µM (active)

Q: Which EC50 (Vasopressin V1a receptor) does the source give for `N=c1n(CC(=O)c2ccc(Br)s2)c2ccccc2n1Cc1ccccc1` here?
A: 15.1 µM (not active)

Q: What about the EC50 (Oxytocin receptor) of the same molecule?
A: 14.8 µM (not active)

Q: And the AC50 [4]?
A: 7.34 µM (active)

Q: And the AC50 (A-375)?
A: 19.7 µM (active)

Q: What about the AC50 [5] of the same molecule?
A: 10.9 µM (active)

Q: What about the AC50 [6] of the same molecule?
A: 11.4 µM (active)

Q: With `COc1cc(C(=S)NCc2cccc(C(F)(F)F)c2)ccc1O` as the molecule, how does the IC50 [7] read?
A: 55 µM (active)

Q: And the IC50 [8]?
A: 47 µM (active)

Q: With `O=c1ccc2nccc3c4c(O)cccc4n1c23` as the molecule, how does the EC50 [9] read?
A: 12.7 µM (active)

Q: What about the EC50 [10] of the same molecule?
A: 9.94 µM (active)

Q: And the EC50 [11]?
A: 11.9 µM (active)

Q: And the IC50 [12]?
A: > 80 µM (inactive)

Q: For `CC(C)=CCOc1cc2oc(=O)ccc2cc1O` [PRENYLETIN], which AC50 (Cytochrome P450 3A4) is on record?
A: 39.8 µM (inconclusive)
